Experiment [1] concerns the target Casein kinase I isoform gamma-1 (Homo sapiens) (UniProt Q9HCP0). Particulars: at 10 µM.
The target of experiment [2] is T1, NUAK family SNF1-like kinase 1 (Homo sapiens) (UniProt O60285).
T1 sequence (whole entry): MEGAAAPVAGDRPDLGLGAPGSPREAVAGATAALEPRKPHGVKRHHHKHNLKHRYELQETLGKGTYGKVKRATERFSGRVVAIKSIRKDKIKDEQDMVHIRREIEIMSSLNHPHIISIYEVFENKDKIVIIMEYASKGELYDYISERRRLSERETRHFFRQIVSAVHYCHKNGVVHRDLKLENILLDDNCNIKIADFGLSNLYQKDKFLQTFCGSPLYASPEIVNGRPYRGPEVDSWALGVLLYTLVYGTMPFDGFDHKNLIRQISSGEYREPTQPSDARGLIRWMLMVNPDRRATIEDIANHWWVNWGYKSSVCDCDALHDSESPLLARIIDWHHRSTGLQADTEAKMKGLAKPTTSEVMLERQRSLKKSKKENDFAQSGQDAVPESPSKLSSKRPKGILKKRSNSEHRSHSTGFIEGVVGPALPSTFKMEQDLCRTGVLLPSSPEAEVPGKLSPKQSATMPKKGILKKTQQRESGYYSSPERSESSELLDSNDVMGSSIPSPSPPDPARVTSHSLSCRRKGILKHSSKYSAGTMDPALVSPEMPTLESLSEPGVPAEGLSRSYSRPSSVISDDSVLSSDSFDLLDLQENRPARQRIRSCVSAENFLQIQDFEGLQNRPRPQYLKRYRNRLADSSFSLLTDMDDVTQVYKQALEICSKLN
Briefly: Selectivity interaction (KinomeScan (DiscoverX)) EUB0000092b NUAK1. Particulars: at 10 µM.

Experiment [3] deals with Bromodomain-containing protein 4 (Homo sapiens, UniProt O60885). The experiment can be described thus: Selectivity interaction (AlphaScreen binding assay) EUB0001632a BRD4. A general note: In Alpha technology, singlet oxygen from a donor bead excites a nearby acceptor bead.
For experiment [4], the target named is Histone-lysine N-methyltransferase SETD2 (Homo sapiens) (UniProt Q9BYW2). Particulars: at 10 µM.
Chain of Histone-lysine N-methyltransferase SETD2 (Homo sapiens) (Q9BYW2 whole entry): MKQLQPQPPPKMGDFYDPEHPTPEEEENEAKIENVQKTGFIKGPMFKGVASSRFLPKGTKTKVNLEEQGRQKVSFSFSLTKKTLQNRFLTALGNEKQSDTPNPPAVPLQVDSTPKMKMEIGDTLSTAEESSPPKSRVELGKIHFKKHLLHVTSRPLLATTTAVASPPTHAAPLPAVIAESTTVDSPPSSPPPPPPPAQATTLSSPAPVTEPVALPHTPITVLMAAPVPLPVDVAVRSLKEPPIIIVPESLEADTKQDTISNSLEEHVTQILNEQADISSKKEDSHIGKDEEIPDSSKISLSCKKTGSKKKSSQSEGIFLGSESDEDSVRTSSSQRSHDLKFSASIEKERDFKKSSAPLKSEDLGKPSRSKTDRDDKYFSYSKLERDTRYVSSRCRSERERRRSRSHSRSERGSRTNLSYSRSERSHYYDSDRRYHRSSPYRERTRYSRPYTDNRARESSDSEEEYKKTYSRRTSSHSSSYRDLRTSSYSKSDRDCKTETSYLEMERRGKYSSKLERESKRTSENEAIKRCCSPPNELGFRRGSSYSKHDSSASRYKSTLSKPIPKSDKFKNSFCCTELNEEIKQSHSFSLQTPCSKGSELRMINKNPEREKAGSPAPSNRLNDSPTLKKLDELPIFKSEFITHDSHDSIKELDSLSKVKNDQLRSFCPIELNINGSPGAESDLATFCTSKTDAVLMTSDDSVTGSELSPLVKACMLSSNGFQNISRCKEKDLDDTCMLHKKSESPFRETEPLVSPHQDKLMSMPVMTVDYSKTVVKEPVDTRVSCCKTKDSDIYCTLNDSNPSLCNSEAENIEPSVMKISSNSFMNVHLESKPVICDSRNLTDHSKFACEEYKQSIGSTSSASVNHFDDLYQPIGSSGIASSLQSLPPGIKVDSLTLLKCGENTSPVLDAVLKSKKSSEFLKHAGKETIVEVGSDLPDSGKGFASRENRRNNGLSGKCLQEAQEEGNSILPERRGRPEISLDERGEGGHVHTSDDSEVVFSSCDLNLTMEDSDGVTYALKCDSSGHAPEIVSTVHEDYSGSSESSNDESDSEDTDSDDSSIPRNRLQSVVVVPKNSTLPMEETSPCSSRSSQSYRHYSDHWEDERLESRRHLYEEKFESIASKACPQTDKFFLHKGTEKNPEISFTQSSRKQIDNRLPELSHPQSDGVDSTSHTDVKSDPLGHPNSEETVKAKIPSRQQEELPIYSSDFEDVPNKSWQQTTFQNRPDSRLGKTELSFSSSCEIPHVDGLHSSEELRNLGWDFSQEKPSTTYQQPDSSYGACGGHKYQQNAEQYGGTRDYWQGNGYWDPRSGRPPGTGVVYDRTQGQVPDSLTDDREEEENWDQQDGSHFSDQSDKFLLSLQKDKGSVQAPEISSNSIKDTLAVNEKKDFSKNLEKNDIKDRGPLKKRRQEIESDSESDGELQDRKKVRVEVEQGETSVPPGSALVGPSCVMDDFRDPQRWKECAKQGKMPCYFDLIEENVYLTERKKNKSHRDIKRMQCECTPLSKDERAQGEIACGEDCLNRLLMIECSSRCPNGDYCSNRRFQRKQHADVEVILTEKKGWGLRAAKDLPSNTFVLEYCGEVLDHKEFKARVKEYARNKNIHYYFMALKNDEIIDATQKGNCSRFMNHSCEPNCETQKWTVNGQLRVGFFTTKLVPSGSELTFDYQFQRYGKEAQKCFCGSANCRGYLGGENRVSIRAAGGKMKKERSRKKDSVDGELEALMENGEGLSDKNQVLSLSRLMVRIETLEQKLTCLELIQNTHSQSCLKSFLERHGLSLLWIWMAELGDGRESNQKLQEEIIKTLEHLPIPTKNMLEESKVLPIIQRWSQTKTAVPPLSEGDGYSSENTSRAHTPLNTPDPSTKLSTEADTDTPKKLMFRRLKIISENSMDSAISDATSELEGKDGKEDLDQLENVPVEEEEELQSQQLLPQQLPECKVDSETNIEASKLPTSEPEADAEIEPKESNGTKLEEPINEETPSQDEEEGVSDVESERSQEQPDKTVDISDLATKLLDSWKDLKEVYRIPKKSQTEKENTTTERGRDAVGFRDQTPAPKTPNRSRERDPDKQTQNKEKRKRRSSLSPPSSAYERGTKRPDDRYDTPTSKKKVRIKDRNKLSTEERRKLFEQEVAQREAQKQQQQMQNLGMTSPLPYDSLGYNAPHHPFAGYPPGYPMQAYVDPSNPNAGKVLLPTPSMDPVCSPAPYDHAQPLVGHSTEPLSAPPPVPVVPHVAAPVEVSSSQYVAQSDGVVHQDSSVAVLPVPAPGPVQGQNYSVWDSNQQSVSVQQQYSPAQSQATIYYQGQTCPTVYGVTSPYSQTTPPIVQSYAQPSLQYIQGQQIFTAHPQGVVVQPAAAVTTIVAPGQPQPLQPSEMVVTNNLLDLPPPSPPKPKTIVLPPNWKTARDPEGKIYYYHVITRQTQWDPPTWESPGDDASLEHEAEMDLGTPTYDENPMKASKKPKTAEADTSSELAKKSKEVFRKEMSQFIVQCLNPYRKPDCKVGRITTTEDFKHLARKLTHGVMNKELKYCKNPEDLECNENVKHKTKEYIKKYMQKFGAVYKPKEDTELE
The target in experiment [5] is T2, 3-phosphoinositide-dependent protein kinase 1 (Homo sapiens) (UniProt O15530).
T2 sequence (whole entry): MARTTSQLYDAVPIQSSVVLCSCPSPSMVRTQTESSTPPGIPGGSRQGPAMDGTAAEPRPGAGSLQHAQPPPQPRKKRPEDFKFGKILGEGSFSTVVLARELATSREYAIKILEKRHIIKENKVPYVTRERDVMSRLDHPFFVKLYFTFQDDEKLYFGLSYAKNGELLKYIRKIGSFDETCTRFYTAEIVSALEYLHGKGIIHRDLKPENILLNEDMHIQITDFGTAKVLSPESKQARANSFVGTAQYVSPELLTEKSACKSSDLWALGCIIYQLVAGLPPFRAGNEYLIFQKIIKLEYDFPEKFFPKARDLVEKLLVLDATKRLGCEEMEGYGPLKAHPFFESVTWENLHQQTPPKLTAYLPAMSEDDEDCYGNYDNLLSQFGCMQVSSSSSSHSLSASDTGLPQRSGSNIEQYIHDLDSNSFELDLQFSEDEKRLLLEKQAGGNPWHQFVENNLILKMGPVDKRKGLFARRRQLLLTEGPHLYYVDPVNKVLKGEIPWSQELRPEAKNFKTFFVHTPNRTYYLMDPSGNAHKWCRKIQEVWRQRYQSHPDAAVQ
Briefly: Selectivity interaction (KinomeScan (DiscoverX)) EUB0000229b PDPK1. Particulars: at 10 µM.

In experiment [6] the target is T3, Mitogen-activated protein kinase kinase kinase 5 (Homo sapiens) (UniProt Q99683).
T3 sequence (whole entry): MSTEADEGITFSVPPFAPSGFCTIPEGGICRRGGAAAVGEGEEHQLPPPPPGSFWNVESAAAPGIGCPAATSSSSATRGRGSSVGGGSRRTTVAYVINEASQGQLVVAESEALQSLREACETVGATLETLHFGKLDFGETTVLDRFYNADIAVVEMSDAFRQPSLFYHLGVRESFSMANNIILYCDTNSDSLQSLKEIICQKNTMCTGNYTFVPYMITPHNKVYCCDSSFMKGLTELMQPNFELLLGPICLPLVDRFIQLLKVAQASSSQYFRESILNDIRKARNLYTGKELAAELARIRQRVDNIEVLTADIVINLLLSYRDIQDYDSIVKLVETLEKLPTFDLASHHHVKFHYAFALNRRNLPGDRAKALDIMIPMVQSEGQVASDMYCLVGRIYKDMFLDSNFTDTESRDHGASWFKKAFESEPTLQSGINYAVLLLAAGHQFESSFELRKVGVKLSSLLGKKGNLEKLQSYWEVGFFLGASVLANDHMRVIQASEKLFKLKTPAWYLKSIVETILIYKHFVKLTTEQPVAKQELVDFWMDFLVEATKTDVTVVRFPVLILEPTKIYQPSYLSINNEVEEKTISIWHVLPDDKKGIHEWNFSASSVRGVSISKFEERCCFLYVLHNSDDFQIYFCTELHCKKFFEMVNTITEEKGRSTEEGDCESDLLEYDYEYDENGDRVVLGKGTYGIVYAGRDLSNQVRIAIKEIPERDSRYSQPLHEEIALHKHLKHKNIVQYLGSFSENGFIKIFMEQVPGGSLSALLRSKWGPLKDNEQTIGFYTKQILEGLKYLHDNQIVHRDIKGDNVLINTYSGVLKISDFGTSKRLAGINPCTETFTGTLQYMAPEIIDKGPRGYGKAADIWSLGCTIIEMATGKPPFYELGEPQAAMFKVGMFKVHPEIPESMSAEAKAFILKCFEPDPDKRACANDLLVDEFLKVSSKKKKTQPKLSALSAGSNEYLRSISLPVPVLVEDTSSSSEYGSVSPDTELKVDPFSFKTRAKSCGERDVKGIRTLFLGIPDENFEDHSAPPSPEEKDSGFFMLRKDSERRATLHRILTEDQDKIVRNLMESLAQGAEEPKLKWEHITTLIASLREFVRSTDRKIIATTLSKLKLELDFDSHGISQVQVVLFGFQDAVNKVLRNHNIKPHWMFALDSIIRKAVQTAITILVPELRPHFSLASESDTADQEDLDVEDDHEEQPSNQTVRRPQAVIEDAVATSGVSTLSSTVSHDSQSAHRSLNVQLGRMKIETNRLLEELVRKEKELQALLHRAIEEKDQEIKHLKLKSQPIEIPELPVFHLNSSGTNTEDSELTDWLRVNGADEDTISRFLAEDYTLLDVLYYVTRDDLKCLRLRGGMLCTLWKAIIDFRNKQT
Briefly: Selectivity interaction (Kinase panel (DSF assay)) EUB0001559a MAP3K5. Background: DSF heats the sample and reads unfolding from a dye or from intrinsic fluorescence.

For experiment [7], the target named is Dual specificity mitogen-activated protein kinase kinase 1 (Homo sapiens, UniProt Q02750). Briefly: Selectivity interaction (Kinase panel (literature)) EUB0001199aCl MAP2K1. The settings on record: at 1 µM.
Chain of Dual specificity mitogen-activated protein kinase kinase 1 (Q02750 whole entry): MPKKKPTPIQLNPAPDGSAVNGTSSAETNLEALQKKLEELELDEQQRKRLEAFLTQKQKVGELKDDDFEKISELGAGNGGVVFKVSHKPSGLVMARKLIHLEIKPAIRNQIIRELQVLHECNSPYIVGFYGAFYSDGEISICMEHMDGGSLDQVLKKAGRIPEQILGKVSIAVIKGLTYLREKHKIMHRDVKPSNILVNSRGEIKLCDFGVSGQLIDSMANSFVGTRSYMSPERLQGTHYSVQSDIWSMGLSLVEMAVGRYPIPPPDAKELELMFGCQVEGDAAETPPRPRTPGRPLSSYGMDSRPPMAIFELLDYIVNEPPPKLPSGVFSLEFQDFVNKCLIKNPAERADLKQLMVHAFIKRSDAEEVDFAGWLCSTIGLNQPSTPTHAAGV

Chain of Casein kinase I isoform gamma-1 (Homo sapiens) (Q9HCP0 whole entry, looked up, canonical isoform): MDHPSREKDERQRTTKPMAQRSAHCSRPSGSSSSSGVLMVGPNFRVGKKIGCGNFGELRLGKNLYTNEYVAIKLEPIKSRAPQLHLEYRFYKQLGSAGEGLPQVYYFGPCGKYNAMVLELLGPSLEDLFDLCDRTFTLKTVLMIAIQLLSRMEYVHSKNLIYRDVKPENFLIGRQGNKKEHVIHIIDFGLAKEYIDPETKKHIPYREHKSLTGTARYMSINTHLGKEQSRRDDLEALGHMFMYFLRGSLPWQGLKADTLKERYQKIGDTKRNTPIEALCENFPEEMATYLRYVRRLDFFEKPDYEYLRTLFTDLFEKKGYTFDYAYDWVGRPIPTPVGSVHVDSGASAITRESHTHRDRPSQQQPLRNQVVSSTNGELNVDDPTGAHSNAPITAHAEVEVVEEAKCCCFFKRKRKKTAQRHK

Regarding `Cc1cc([C@@H](C)Nc2ccccc2C(=O)O)c2nc(N3CCOCC3)cc(=O)n2c1` [AZD-6482], in experiment [1], the % of control is 68%. Turning to `CCC(=O)N1CCN(c2ccc(-n3c(=O)ccc4cnc5ccc(-c6cnc7ccccc7c6)cc5c43)cc2C(F)(F)F)CC1`, in experiment [2], the % of control stood at 100%.

As for `Cn1cc(-n2cnc3c(NCc4nc5cc(Cl)c(Cl)cc5[nH]4)nc(N4CCOCC4)nc32)cn1`, the 50% inhibitory concentration (IC50) in experiment [3] was above 10 µM. With `CNCCN1CCC(c2cc(CN(C)C(=O)c3cccc(Oc4ccccc4)c3)ccn2)CC1`, the % activity in experiment [4] was above 90%. The molecule `COc1cc(N(C)c2ccnc3ccc(C(F)(F)F)cc23)cc(OC)c1OC` showed a % binding in experiment [5] of 98%.

`CN(C(=O)c1cnn2cccnc12)c1cc2c(cc1N1CCOCC1)C(=O)N(C[C@@H](F)C(C)(C)O)C2` showed a dTM in experiment [6] of -0.3 K. Take `CN1Cc2nccc(-c3cn(C)nc3-c3ccc(F)cc3)c2C1=O`: in experiment [7], the % of inhibition was -4%.

The IC50 is the concentration that gives 50% inhibition. The low end stands for inhibition by little substance, the high end for a need for much substance.

Values taken from ChEMBL document CHEMBL5465560, “Selectivity Literature for EUbOPEN Chemogenomic Library” (2024).
